What follows are compounds tested against Prostaglandin E synthase, mPGES-1 (Homo sapiens) (UniProt O14684) (assay: Inhibition of Prostaglandin E2 synthase-1 in IL1-beta stimulated microsomal fraction of human A549 cell assessed as PGE2 level by RP-HPLC).
Chain of Prostaglandin E synthase, mPGES-1 (Homo sapiens) (O14684 whole entry, looked up): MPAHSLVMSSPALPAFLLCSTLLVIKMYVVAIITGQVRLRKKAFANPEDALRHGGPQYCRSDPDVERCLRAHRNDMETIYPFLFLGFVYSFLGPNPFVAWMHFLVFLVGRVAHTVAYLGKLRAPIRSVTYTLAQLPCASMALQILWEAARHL
With Oc1ccc(-c2ccc(-c3cn(CCCc4ccccc4)nn3)cc2)cc1 [4'-[1-(3-Phenyl-propyl)-1H-[1,2,3]triazol-4-yl]-biphenyl-4-ol] the IC50 was over 30 µM.
Compound Oc1ccc(-c2ccc(-c3cn(CSc4ccccc4)nn3)cc2)cc1 [4'-(1-Phenylsulfanylmethyl-1H-[1,2,3]triazol-4-yl)-biphenyl-4-ol] has an IC50 of over 30 µM.
Compound O=C(OCc1cn(CSc2ccccc2)nn1)c1ccccc1 [Benzoic acid 1-Phenylsulfanylmethyl-1H-[1,2,3]Triazol-4-ylmethyl Ester] has an IC50 of over 30 µM.
With O=C(O)c1ccc(Cn2cc(-c3ccc(-c4ccccc4)cc3)nn2)c([N+](=O)[O-])c1 [4-(4-Biphenyl-4-yl-[1,2,3]triazol-1-ylmethyl)-3-nitro-benzoic acid] the IC50 was 3.2 µM.
Work on O=Cc1ccc(-c2c(Cc3ccccc3)nnn2CSc2ccccc2)cc1 [4-(5-Benzyl-3-phenylsulfanylmethyl-3H-[1,2,3]triazol-4-yl)-benzaldehyde] yielded an IC50 of over 30 µM.
In the case of Cc1ccccc1CCn1cc(-c2ccc(-c3ccccc3COc3cccc4ccccc34)cc2)nn1 [4-[2'-(Naphthalen-1-yloxymethyl)-biphenyl-4-yl]-1-(2-o-tolyl-ethyl)-1H-[1,2,3]triazole], the IC50 is reported as over 30 µM.
c1ccc(CCCn2cc(-c3ccc(-c4ccc(Oc5ccccc5)cc4)cc3)nn2)cc1 [4-(4'-Phenoxy-biphenyl-4-yl)-1-(3-phenyl-propyl)-1H-[1,2,3]triazole] gave an IC50 of over 30 µM.
For Oc1cccc(-c2ccc(-c3cn(CSc4ccccc4)nn3)cc2)c1 [4'-(1-Phenylsulfanylmethyl-1H-[1,2,3]triazol-4-yl)-biphenyl-3-ol], the IC50 was over 30 µM.
Compound c1ccc(CCCn2cc(-c3ccc(-c4ccccc4COc4cccc5ccccc45)cc3)nn2)cc1 [4-[2'-(Naphthalen-1-yloxymethyl)-biphenyl-4-yl]-1-(3-phenyl-propyl)-1H-[1,2,3]triazole] has an IC50 of over 30 µM.
FC(F)(F)c1ccc(Cl)c(OCc2ccccc2-c2ccc(-c3cn(CCCc4ccccc4)nn3)cc2)c1 [4-[2'-(2-Chloro-5-trifluoromethyl-phenoxymethyl)-biphenyl-4-yl]-1-(3-phenyl-propyl)-1H-[1,2,3]triazole] gave an IC50 of over 30 µM.
In the case of O=C(O)c1ccc(S(=O)(=O)n2cc(-c3ccc(-c4ccccc4COc4cccc5ccccc45)cc3)nn2)cc1 [4-{4-[2'-(Naphthalen-1-yloxymethyl)-biphenyl-4-yl]-1,2,3]triazole-1-sulfonyl}-benzoic acid], the IC50 is reported as over 30 µM.
Work on Cc1ccccc1CCn1cc(-c2ccc(-c3ccccc3COc3cc(C(F)(F)F)ccc3Cl)cc2)nn1 [4-[2'-(2-Chloro-5-trifluoromethyl-phenoxymethyl)-biphenyl-4-yl]-1-(2-o-tolyl-ethyl)-1H-[1,2,3]triazole] yielded an IC50 of over 30 µM.
With CN(C)c1cccc2c(S(=O)(=O)Nc3ccc(-c4ccc(-c5cn(CCCc6ccccc6)nn5)cc4)cc3)cccc12 [5-Dimethylamino-naphthalene-1-sulfonic acid{4'-[1-(3-phenyl-propyl)-1H-[1,2,3]triazol-4-yl]-biphenyl-4-yl}-amide] the IC50 was over 30 µM.
Cc1ccccc1CCn1cc(-c2ccc(-c3ccc(N)cc3)cc2)nn1 [4'-[1-(2-o-Tolyl-ethyl)-1H-[1,2,3]triazol-4-yl]-biphenyl-4-ylamine] gave an IC50 of over 30 µM.
With c1ccc(CCCn2cc(-c3ccc(-c4cc5ccccc5c5ccccc45)cc3)nn2)cc1 [4-(4-Phenanthren-9-yl-phenyl)-1-(3-phenyl-propyl)-1H-[1,2,3]triazole] the IC50 was over 30 µM.
